In ChEMBL document CHEMBL2176972, “Potential use of selective and nonselective Pim kinase inhibitors for cancer therapy” (J Med Chem, 2012):
One block for each compound: values may come before it.

What was measured:
[1] = biological target: Serine/threonine-protein kinase pim-2 (Homo sapiens, UniProt Q9P1W9); assay: Competitive inhibition of PIM2 in presence of ATP
[2] = biological target: Serine/threonine-protein kinase pim-1 (Homo sapiens, UniProt P11309); assay: Competitive inhibition of PIM1 using KKRNRTLTV as substrate after 5 mins by scintillation counter in presence of [gamma-32P]ATP
[3] = biological target: Casein kinase II subunit alpha (Homo sapiens, UniProt P68400); assay: Competitive inhibition of CK2alpha using RRREDEESDDEE as substrate after 5 mins by scintillation counter in presence of [gamma-32P]ATP
[4] = biological target: T1, Serine/threonine-protein kinase haspin (Homo sapiens, UniProt Q8TF76); assay: Inhibition of haspin
T1 sequence (Q8TF76 whole entry): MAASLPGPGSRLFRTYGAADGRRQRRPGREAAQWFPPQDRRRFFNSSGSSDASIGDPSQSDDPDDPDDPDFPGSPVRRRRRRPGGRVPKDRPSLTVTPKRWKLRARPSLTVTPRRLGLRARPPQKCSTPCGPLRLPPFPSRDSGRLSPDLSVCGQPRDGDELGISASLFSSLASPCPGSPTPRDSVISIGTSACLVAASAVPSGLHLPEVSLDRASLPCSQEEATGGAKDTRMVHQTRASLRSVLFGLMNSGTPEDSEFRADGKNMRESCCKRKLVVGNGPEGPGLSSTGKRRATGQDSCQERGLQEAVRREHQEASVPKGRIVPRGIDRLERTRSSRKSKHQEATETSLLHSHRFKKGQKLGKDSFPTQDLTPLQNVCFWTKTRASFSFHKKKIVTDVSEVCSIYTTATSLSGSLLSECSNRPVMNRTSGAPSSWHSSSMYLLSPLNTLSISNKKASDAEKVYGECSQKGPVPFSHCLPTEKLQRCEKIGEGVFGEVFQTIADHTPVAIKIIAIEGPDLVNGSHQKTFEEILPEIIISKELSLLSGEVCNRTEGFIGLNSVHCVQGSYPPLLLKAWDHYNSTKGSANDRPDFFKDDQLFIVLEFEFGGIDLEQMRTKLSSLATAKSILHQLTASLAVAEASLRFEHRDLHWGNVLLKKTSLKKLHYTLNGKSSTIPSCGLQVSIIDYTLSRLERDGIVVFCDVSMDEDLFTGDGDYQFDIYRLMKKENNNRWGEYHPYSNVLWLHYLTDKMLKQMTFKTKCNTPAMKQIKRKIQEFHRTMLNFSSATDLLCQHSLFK

Ki [1]: 0.1 µM
SMILES: O=C1NC(=O)/C(=C/c2cccc(C(F)(F)F)c2)S1

IC50 [2]: 0.02 µM
IC50 [3]: 0.063 µM
SMILES: O=C(O)c1cc2c(ccc3cc4c(ccc5oc(C(=O)O)cc54)cc32)o1

IC50 [4]: 0.034 µM
SMILES: CN1CCC(CNc2ccc3ncc(-c4cccc(OC(F)(F)F)c4)n3n2)CC1 [SGI-1776]
